pEC50, pIC50, pKd: −log10 of the molar value. Calls of active or inactive are those of the source. The rule behind the calls is not given here. Where a SMILES comes first, the peptide text is derived from it. Bridges are numbered along the chain shown (N, C = ends). Where only a bound is given, the exact number is not on record here.

Data set [1] in a line: Drug localization in lysosomes of human MCF7 cells at 10 uM after 3 hrs by Lysotracker red DND-99 staining based confocal microscopic analysis. It counts as ADME, subcellular, Lysosome. Particulars: mcf7, 3 h.
A short description of data set [2]: Drug uptake in human MCF7 cells assessed as cell area stained at 10 uM after 3 hrs by Hoechst 33342 staining based confocal microscopic analysis. The data set is classed as ADME. Conditions: mcf7, 3 h.
Data set [3] has as its target T1, Lysine-specific demethylase 4A (Homo sapiens, UniProt O75164).
T1 sequence (O75164 whole entry): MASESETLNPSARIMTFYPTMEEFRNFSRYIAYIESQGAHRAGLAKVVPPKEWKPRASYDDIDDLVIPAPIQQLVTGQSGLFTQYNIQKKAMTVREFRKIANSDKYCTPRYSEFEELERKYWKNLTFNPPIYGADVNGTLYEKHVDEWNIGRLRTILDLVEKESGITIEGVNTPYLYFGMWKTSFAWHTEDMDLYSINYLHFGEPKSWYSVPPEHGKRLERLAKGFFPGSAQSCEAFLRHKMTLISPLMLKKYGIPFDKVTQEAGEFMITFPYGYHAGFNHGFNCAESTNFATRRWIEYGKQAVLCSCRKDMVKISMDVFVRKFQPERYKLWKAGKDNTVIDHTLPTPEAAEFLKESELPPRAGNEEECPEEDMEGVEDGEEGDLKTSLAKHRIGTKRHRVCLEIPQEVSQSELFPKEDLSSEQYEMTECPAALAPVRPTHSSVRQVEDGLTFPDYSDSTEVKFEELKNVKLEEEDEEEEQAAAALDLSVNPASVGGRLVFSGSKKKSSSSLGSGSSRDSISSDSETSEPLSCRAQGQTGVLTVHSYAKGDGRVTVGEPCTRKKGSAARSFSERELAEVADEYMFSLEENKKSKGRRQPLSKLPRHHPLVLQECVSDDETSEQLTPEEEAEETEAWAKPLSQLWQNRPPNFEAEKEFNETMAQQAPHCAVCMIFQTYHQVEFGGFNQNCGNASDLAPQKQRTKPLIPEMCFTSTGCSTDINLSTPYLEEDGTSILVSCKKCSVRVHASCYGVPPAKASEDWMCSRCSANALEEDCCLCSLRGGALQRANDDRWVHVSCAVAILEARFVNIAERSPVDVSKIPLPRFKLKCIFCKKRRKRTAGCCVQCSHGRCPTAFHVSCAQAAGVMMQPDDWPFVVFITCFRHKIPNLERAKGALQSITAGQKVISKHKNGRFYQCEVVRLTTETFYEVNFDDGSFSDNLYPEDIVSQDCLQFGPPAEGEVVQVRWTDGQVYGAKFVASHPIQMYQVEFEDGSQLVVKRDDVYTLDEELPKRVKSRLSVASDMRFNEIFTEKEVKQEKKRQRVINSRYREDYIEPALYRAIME
Kind of data set: (§1) Binding affinity to biotinylated-KDM4A (unknown origin) at 300 nM by bio-layer interferometric method. Particulars: read-out: Kd(app). Background: BLI is a label-free optical method that tracks binding on a fibre tip over time.

Data set [4] deals with T2, Lysine-specific demethylase 4C (Homo sapiens, UniProt Q9H3R0).
T2 sequence (Q9H3R0 whole entry): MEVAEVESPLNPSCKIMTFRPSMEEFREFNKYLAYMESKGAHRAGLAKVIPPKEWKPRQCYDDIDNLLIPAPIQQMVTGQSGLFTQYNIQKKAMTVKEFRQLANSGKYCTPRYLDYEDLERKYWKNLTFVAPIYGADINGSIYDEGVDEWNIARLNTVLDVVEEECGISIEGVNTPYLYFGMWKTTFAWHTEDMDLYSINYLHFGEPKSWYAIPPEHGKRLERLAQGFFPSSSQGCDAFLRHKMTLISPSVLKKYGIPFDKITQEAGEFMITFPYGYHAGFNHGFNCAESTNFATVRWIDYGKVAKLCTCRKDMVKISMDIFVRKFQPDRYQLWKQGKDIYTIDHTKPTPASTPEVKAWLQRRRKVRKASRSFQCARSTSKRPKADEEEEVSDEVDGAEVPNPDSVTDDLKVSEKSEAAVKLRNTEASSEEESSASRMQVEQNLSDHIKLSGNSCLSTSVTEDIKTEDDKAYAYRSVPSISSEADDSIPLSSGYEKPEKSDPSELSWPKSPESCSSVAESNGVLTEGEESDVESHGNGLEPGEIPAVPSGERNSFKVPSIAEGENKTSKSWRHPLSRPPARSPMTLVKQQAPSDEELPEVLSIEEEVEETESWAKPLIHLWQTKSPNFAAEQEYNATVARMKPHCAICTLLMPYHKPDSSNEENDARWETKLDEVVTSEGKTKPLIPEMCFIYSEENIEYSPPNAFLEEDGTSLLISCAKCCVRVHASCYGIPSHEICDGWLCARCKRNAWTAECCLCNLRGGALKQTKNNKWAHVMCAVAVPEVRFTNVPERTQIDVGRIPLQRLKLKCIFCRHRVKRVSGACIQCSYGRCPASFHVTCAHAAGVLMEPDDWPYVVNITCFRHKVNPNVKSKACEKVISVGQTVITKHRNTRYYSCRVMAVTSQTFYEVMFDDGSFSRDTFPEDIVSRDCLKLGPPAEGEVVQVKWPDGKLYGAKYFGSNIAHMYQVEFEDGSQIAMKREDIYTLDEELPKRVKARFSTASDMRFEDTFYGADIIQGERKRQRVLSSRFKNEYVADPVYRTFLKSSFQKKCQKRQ
Kind of data set: Inhibition of KDM4C (unknown origin) expressed in Escherichia coli using biotinylated peptide as substrate pretreated for 15 mins followed by substrate addition by Alphascreen assay.

Data set [5] has as its target T1, Lysine-specific demethylase 4A. Kind of data set: Inhibition of KDM4A (unknown origin) expressed in Escherichia coli using biotinylated peptide as substrate pretreated for 15 mins followed by substrate addition by Alphascreen assay. For orientation: Bead proximity is the source of the signal in Alpha formats.
Data set [6] shares this target. The data set can be described thus: Inhibition of full length FLAG-tagged KDM4A (unknown origin) expressed in human HeLa cells assessed as increase in H3K9me3 levels after 24 hrs by DAPI staining based immunofluorescence assay. The data set is classed as cell-based.
Data set [7] has as its system HeLa. Kind of data set: Cytotoxicity against human HeLa cells expressing FLAG-tagged KDM4A assessed as reduction in cell numbers at >5 uM after 24 hrs by DAPI staining based immunofluorescence assay.
The test system of data set [8] is HeLa. Kind of data set: Cytotoxicity against human HeLa cells expressing FLAG-tagged KDM4A assessed as condensed nucleus at 50 uM after 24 hrs by DAPI staining based immunofluorescence assay. It counts as cell-based.
The target in data set [9] is T3, Lysine-specific demethylase 4A (Homo sapiens) (UniProt O75164).
T3 sequence (whole entry): T1 sequence (O75164 whole entry)
Kind of data set: Inhibition of full length FLAG-tagged KDM4A (unknown origin) expressed in human HeLa cells assessed as increase in H3K9me3 levels at >20 uM after 24 hrs by DAPI staining based immunofluorescence assay. It counts as cell-based.

The target in data set [10] is T1, Lysine-specific demethylase 4A. Kind of data set: Binding affinity to N-terminal His6-tagged KDM4A (1 to 359 residues) (unknown origin) expressed in Escherichia coli BL21(DE3) Rosetta by bio-layer interferometric method. Particulars: read-out: Kd(app).
The target is the same in data set [11]. The data set can be described thus: Stabilization of FLAG-tagged KDM4A (1 to 1064 residues) (unknown origin) expressed in human U2OS cells measured after 3 hrs by CETSA. It counts as cell-based.
Data set [12] addresses T3, Lysine-specific demethylase 4A (Homo sapiens). Described as §1.

As for `N=C(N)NCCC[C@@H]1NC(=O)CNC(=O)[C@H](Cc2ccc(O)cc2)NC(=O)CSC[C@@H](C(N)=O)NC(=O)[C@H](CCCNC(=N)N)NC(=O)[C@H](CCCNC(=N)N)NC(=O)[C@H](CCCNC(=N)N)NC(=O)[C@H](CCC(N)=O)NC(=O)[C@H](CCCNC(=N)N)NC(=O)[C@H](CCCCN)NC(=O)[C@H](CCCCN)NC(=O)[C@H](CCCCN)NC1=O` ({CH2CO}-YGRKKKRQRRRC-NH2; thioether N-12), the Drug uptake entry in data set [1] and in data set [2] was “Active” in each case.
Broadly, the pKd is the Kd on a negative log10 scale, so that one unit is a factor of ten. What is called pIC50 is the IC50 on a negative log10 scale, so that one unit is a factor of ten. In general, pEC50 refers to −log10 of the EC50, conventionally taken in molar units. Regarding `CC[C@H](C)[C@@H]1NC(=O)CNC(=O)[C@H](CO)NC(=O)[C@H](CCCNC(=N)N)NC(=O)[C@H](CCCNC(=N)N)NC(=O)[C@H]([C@@H](C)CC)NC(=O)[C@H](CCCNC(=N)N)NC(=O)[C@@H]2CCCN2C(=O)[C@H](Cc2ccc(O)cc2)NC(=O)CSC[C@@H](C(N)=O)NC(=O)[C@H](Cc2c[nH]c3ccccc23)NC(=O)[C@H](CCCNC(=N)N)NC1=O` ({CH2CO}-YPRIRRSGIRWC-NH2; thioether N-12), the pKd in data set [3] was under 6.52. The Drug uptake result in data set [1] is listed as “Active”; in data set [2], 76.8%. The pIC50 is 6.33 in data set [4] and 6.21 in data set [5]. Besides, in [6], the pEC50 is under 4.30.
`CC[C@H](C)[C@@H]1NC(=O)[C@H](CCCNC(=N)N)NC(=O)[C@H]([C@@H](C)CC)NC(=O)[C@H](Cc2ccc(O)cc2)NC(=O)CSC[C@@H](C(N)=O)NC(=O)[C@H](Cc2c[nH]c3ccccc23)NC(=O)[C@H](CC(C)C)NC(=O)[C@H](Cc2c[nH]c3ccccc23)NC(=O)CNC(=O)[C@H](CO)NC(=O)[C@H](CCCNC(=N)N)NC(=O)[C@H](CCCNC(=N)N)NC1=O` ({CH2CO}-YIRIRRSGWLWC-NH2; thioether N-12): in data set [3], the pKd was 7.38. The figures for the Drug uptake entry in [1] and in data set [2] were “Active” and 65.3%, respectively. Also, the pIC50 in data set [4] and in data set [5] was 7.64 throughout. For the same molecule, the pEC50 in data set [6] is under 4.30.
Regarding `CC[C@H](C)[C@@H]1NC(=O)CNC(=O)[C@H](CO)NC(=O)[C@H](CCCNC(=N)N)NC(=O)[C@H](CCCNC(=N)N)NC(=O)[C@H](Cc2ccccc2)NC(=O)[C@H](CCCNC(=N)N)NC(=O)[C@H]([C@@H](C)O)NC(=O)[C@@H](Cc2ccc(O)cc2)NC(=O)CSC[C@@H](C(N)=O)NC(=O)[C@H](Cc2ccc(O)cc2)NC(=O)[C@H](Cc2ccc(O)cc2)NC(=O)[C@H](Cc2ccccc2)NC(=O)[C@H](C(C)C)NC1=O`, the pKd in data set [3] was 8.59. Further, the Activity entry in the data set with HeLa [7] and in the data set on HeLa [8] was “Toxic” in each case. Further, in [6], the pEC50 was under 4.30. Also, in data set [2], the Drug uptake is reported as 13.4%.
As to `CC[C@H](C)[C@@H]1NC(=O)CNC(=O)[C@H](CO)NC(=O)[C@H](CCCNC(=N)N)NC(=O)[C@H](CCCNC(=N)N)NC(=O)[C@H](Cc2ccccc2)NC(=O)[C@H](CCCNC(=N)N)NC(=O)[C@H]([C@H](C)O)NC(=O)[C@@H](Cc2ccc(O)cc2)NC(=O)CSC[C@@H](C(N)=O)NC(=O)[C@H](Cc2ccc(O)cc2)NC(=O)[C@H](Cc2ccc(O)cc2)NC(=O)[C@H](Cc2ccccc2)NC(=O)[C@H](C(C)C)NC1=O`, in data set [9], the inhibition result is “Active”.
As for `CC(C)[C@@H]1NC(=O)[C@@H](Cc2ccc(O)cc2)NC(=O)CSC[C@@H](C(N)=O)NC(=O)[C@H](Cc2c[nH]c3ccccc23)NC(=O)[C@H](Cc2ccc(O)cc2)NC(=O)[C@H](Cc2c[nH]c3ccccc23)NC(=O)[C@H](CCCNC(=N)N)NC(=O)[C@H](Cc2c[nH]c3ccccc23)NC(=O)CNC(=O)[C@H](CO)NC(=O)[C@H](CCCNC(=N)N)NC(=O)[C@H]([C@@H](C)O)NC(=O)[C@H](CC(N)=O)NC(=O)[C@H](Cc2ccc(O)cc2)NC1=O`, the pKd in [10] was 7.53. For the same molecule, the pIC50 in [4] is 7.34; in data set [5], 7.39. In data set [11], this molecule gave a pEC50 of under 4.00. In data set [2], the Drug uptake amounted to 17.4%.
With `CC[C@H](C)[C@@H]1NC(=O)[C@H](CCCNC(=N)N)NC(=O)[C@@H]2CCCN2C(=O)[C@H](Cc2ccc(O)cc2)NC(=O)CSC[C@@H](C(N)=O)N(C)C(=O)[C@H](Cc2c[nH]c3ccccc23)NC(=O)[C@H](CCCNC(=N)N)NC(=O)[C@H]([C@@H](C)CC)NC(=O)[C@@H](C)NC(=O)[C@H](CO)NC(=O)[C@H](CCCNC(=N)N)NC(=O)[C@H](CCCNC(=N)N)NC1=O`, the “Kd(app)” value in data set [12] is “inactive”. Moreover, the results for the pIC50 in data set [4] and in data set [5] were 7.19 and 6.57, respectively. The pEC50 in [6] was under 4.30. The Drug uptake in data set [2] was found to be 1.2%.
In the case of `CC[C@H](C)[C@@H]1NC(=O)[C@H](CCCNC(=N)N)NC(=O)[C@H]([C@@H](C)CC)N(C)C(=O)[C@H](Cc2ccc(O)cc2)NC(=O)CSC[C@@H](C(N)=O)N(C)C(=O)[C@H](Cc2c[nH]c3ccccc23)NC(=O)[C@H](CC(C)C)NC(=O)[C@H](Cc2c[nH]c3ccccc23)NC(=O)[C@@H](C)NC(=O)[C@H](CO)NC(=O)[C@H](CCCNC(=N)N)NC(=O)[C@H](CCCNC(=N)N)NC1=O`, the pKd in [3] was 7.64. In addition, the negative logarithm of the IC50 (pIC50) is 7.57 in data set [4] and 7.77 in data set [5]. Also, the inhibition result in data set [9] is “Active”. Also, in data set [6], the pEC50 is under 4.30. In addition, in data set [2], the Drug uptake came out at 7.4%.

The record behind these values is ChEMBL document CHEMBL4184250, “Structure-activity studies of a macrocyclic peptide inhibitor of histone lysine demethylase 4A” (Bioorg Med Chem, 2018).
